The test system of the experiment is HIV-1. The experiment can be described thus: HIV-1 single-round infectious luciferase reporter virus (pseudotype) assay in HeLa CD4 CCR5 cells. Format: cell-based. The procedure, abridged:
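HeLa CD4 CCR5 cells (5×10^4/well, DMEM + 10% FBS) were treated with compound (final <10 μM) and infected with single-round luciferase reporter virus made in 293 cells, at MOI ~0.01. Luciferase was read 72 h post infection. EC50 came from 10-concentration percent-inhibition curves fitted to a four-parameter logistic model.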
Background: In a reporter assay the amount or activity of a reporter protein is the signal.

Where [1] appears, read: Human immunodeficiency virus 1, HeLa-CD4/CCR5, read-out: EC50 Group from Table 1, Table 2-1, HeLa CD4 CCR5 cells, single-round luciferase reporter virus.
The mark [2] stands for this setting: Human immunodeficiency virus 1, HeLa-CD4/CCR5, read-out: EC50 Group from TABLE 1, HeLa CD4 CCR5 cells, single-round infectious luciferase reporter virus.

Like-named read-outs stand apart in the source and are kept apart here.

The source of these data is patent publication US20050090522A1 (priority 2001, published 2005).

As to `COc1cnc(-n2nnc3ccccc32)c2[nH]cc(C(=O)C(=O)N3CCN(C(=O)c4ccccc4)[C@H](C)C3)c12` [Example 246, (R)-1-benzoyl-2-methyl-4-[(4-methoxy-7-(1,2,3-benzotriazol-1-yl)-6-azaindol-3-yl)-oxoacetyl]piperazine], under setting [1], the concentration giving a half-maximal response (EC50) – broadly, the concentration at which the effect is half-maximal – was below 1 µM.

Consider `COc1cnc(-n2ccc(C(C)(C)O)n2)c2[nH]cc(C(=O)C(=O)N3CCN(C(=O)c4ccccc4)CC3)c12` [Example 247, 1-benzoyl-4-[(4-methoxy-7-(3-(1-hydroxyl-1-methylethyl)-pyrazol-1-yl)-6-azaindol-3-yl)-oxoacetyl]piperazine], for which the EC50 under setting [2] was below 1 µM.

As to `COc1cnc(-n2ccc(CCO)n2)c2[nH]cc(C(=O)C(=O)N3CCN(C(=O)c4ccccc4)CC3)c12` [Example 248, 1-benzoyl-4-[(4-methoxy-7-(3-(3-hydroxylethyl)-pyrazol-1-yl)-6-azaindol-3-yl)-oxoacetyl]piperazine], under setting [2], the EC50 is below 1 µM.

Turning to `COc1cnc(-n2ccc(C(C)C)n2)c2[nH]cc(C(=O)C(=O)N3CCN(C(=O)c4ccccc4)CC3)c12` [Example 249, 1-benzoyl-4-[(4-methoxy-7-(3-iso-propyl-pyrazol-1-yl)-6-azaindol-3-yl)-oxoacetyl]piperazine], the EC50 under setting [2] is below 1 µM.

On to `CCCCCc1ccn(-c2ncc(OC)c3c(C(=O)C(=O)N4CCN(C(=O)c5ccccc5)CC4)c[nH]c23)n1` [Example 250, 1-benzoyl-4-[(4-methoxy-7-(3-n-pentyl-pyrazol-1-yl)-6-azaindol-3-yl)-oxoacetyl]piperazine], for which the EC50 under setting [2] is below 1 µM.

In the case of `COc1cnc(-n2nccc2N)c2[nH]cc(C(=O)C(=O)N3CCN(C(=O)c4ccccc4)CC3)c12` [Example 252, 1-benzoyl-4-[(4-methoxy-7-(5-amino-pyrazol-1-yl)-6-azaindol-3-yl)-oxoacetyl]piperazine], the EC50 under setting [2] was below 1 µM.

`COc1cnc(-n2ccc(N)n2)c2[nH]cc(C(=O)C(=O)N3CCN(C(=O)c4ccccc4)[C@H](C)C3)c12` [Example 253, (R)-1-benzoyl-2-methyl-4-[(4-methoxy-7-(3-amino-pyrazol-1-yl)-6-azaindol-3-yl)-oxoacetyl]piperazine]: the EC50 under setting [1] is below 1 µM.

For `COc1cnc(-n2nccc2N)c2[nH]cc(C(=O)C(=O)N3CCN(C(=O)c4ccccc4)[C@H](C)C3)c12` [Example 254, (R)-1-benzoyl-2-methyl-4-[(4-methoxy-7-(5-amino-pyrazol-1-yl)-6-azaindol-3-yl)-oxoacetyl]piperazine], the concentration for a half-maximal effect (EC50) under setting [1] was below 1 µM.

In the case of `COc1cnc(-n2ccc(O)n2)c2[nH]cc(C(=O)C(=O)N3CCN(C(=O)c4ccccc4)[C@H](C)C3)c12` [Example 257, (R)-1-benzoyl-2-methyl-4-[(4-methoxy-7-(3-hydroxylpyrazol-1-yl)-6-azaindol-3-yl)-oxoacetyl]piperazine], the EC50 under setting [1] was below 1 µM.

As to `COc1cnc(-n2ccc(C(C)=O)n2)c2[nH]cc(C(=O)C(=O)N3CCN(C(=O)c4ccccc4)[C@H](C)C3)c12` [Example 259, (R)-1-benzoyl-2-methyl-4-[(4-methoxy-7-(3-methylcarbonyl-pyrazol-1-yl)-6-azaindol-3-yl)-oxoacetyl]piperazine], under setting [1], the 50% effective concentration (EC50) was below 1 µM.

As to `COc1cnc(-n2ccc(-c3ccccc3)n2)c2[nH]cc(C(=O)C(=O)N3CCN(C(=O)c4ccccc4)[C@H](C)C3)c12` [Example 260, (R)-1-benzoyl-2-methyl-4-[(4-methoxy-7-(3-phenyl-pyrazol-1-yl)-6-azaindol-3-yl)-oxoacetyl]piperazine], the EC50 under setting [1] was below 1 µM.

With `COc1cnc(-n2cnc(NCc3cccnc3)n2)c2[nH]cc(C(=O)C(=O)N3CCN(C(=O)c4ccccc4)[C@H](C)C3)c12` [Example 261, (R)-1-benzoyl-2-methyl-4-[(4-methoxy-7-(3-(3-pyridinemethylamino)-1,2,4-triazol-1-yl)-6-azaindol-3-yl)-oxoacetyl]piperazine], under setting [1], the EC50 was below 1 µM.

For the compound `COc1cnc(-n2ccc(NC(C)=O)n2)c2[nH]cc(C(=O)C(=O)N3CCN(C(=O)c4ccccc4)[C@H](C)C3)c12` [Example 262, (R)-1-benzoyl-2-methyl-4-[(4-methoxy-7-(3-acetylamino-pyrazol-1-yl)-6-azaindol-3-yl)-oxoacetyl]piperazine], under setting [1], the EC50 is below 1 µM.

Take `COc1cnc(-n2ccc(-c3ccc(C)nc3)n2)c2[nH]cc(C(=O)C(=O)N3CCN(C(=O)c4ccccc4)[C@H](C)C3)c12` [Example 263, (R)-1-benzoyl-2-methyl-4-[(4-methoxy-7-(3-(2-methylpyridin-5-yl)pyrazol-1-yl)-6-azaindol-3-yl)-oxoacetyl]piperazine]: under setting [1], the 50% effective concentration (EC50) was below 1 µM.

As for `COc1cnc(-n2ccc(-c3ccc(C)nc3)n2)c2[nH]cc(C(=O)C(=O)N3CCN(C(=O)c4ccccc4)CC3)c12` [Example 264, 1-benzoyl-4-[(4-methoxy-7-(3-(2-methylpyridin-5-yl)pyrazol-1-yl)-6-azaindol-3-yl)-oxoacetyl]piperazine], the EC50 under setting [2] was below 1 µM.

On to `COc1cnc(-n2ccc(C(C)n3cncn3)n2)c2[nH]cc(C(=O)C(=O)N3CCN(C(=O)c4ccccc4)[C@H](C)C3)c12` (some centres unmarked) [Example 265], for which the EC50 under setting [1] was below 1 µM.

Consider `COc1cnc(-c2cnc(N)cn2)c2[nH]cc(C(=O)C(=O)N3CCN(C(=O)c4ccccn4)[C@H](C)C3)c12` [Example 267], for which the concentration for a half-maximal effect (EC50) under setting [1] is below 1 µM.

Take `COc1cnc(-c2ccc(S(C)(=O)=O)cc2)c2[nH]cc(C(=O)C(=O)N3CCN(C(=O)c4ccccn4)[C@H](C)C3)c12` [Example 268]: the EC50 under setting [1] was below 1 µM.

Consider `COc1cnc(-c2cnccn2)c2[nH]cc(C(=O)C(=O)N3CCN(C(=O)c4cccnc4)[C@H](C)C3)c12` [Example 270], for which the EC50 under setting [1] was below 1 µM.

With `COc1cnc(-c2cnc(O)cn2)c2[nH]cc(C(=O)C(=O)N3CCN(C(=O)c4ccccc4)[C@H](C)C3)c12` [Example 271], the EC50 under setting [1] was below 1 µM.

Consider `COc1cnc(-c2cnc(O)cn2)c2[nH]cc(C(=O)C(=O)N3CCN(C(=O)c4ccccn4)[C@H](C)C3)c12` [Example 272], for which, under setting [1], the half-maximal effective concentration (EC50) is below 1 µM.

`COc1cnc(-n2ccc(CC(C)O)n2)c2[nH]cc(C(=O)C(=O)N3CCN(C(=O)c4ccccc4)CC3)c12` (centres unmarked) [Example 277, 1-benzoyl-4-[(4-methoxy-7-(3-(2-hydroxylpropyl)-pyrazol-1-yl)-6-azaindol-3-yl)-oxoacetyl]piperazine]: the EC50 under setting [2] was below 1 µM.

Consider `COc1cnc(-n2ccc(C3=CCCCC3)n2)c2[nH]cc(C(=O)C(=O)N3CCN(C(=O)c4ccccc4)CC3)c12` [Example 278, 1-benzoyl-4-[(4-methoxy-7-(3-(cyclohexen-1-yl)-pyrazol-1-yl)-6-azaindol-3-yl)-oxoacetyl]piperazine], for which the concentration giving a half-maximal response (EC50) under setting [2] is below 1 µM.

In the case of `COc1cnc(-n2ccc(CCCC#N)n2)c2[nH]cc(C(=O)C(=O)N3CCN(C(=O)c4ccccc4)CC3)c12` [Example 279, 1-benzoyl-4-[(4-methoxy-7-(3-(3-cyano-propan-1-yl)-pyrazol-1-yl)-6-azaindol-3-yl)-oxoacetyl]piperazine], under setting [2], the EC50 is below 1 µM.

As to `COc1cnc(-n2ccc(CN3CCS(=O)(=O)CC3)n2)c2[nH]cc(C(=O)C(=O)N3CCN(C(=O)c4ccccc4)CC3)c12` [Example 280, 1-benzoyl-4-[(4-methoxy-7-(3-(1,1-dioxo-thiomorpholin-4-yl)methyl-pyrazol-1-yl)-6-azaindol-3-yl)-oxoacetyl]piperazine], under setting [2], the EC50 was below 1 µM.

With `COc1cnc(-n2ccc(CC(C)C)n2)c2[nH]cc(C(=O)C(=O)N3CCN(C(=O)c4ccccc4)CC3)c12` [Example 281, 1-benzoyl-4-[(4-methoxy-7-(3-isobutyl-pyrazol-1-yl)-6-azaindol-3-yl)-oxoacetyl]piperazine], the EC50 under setting [2] was below 1 µM.

For `COc1cnc(-n2ccc(C3(O)CCCC3)n2)c2[nH]cc(C(=O)C(=O)N3CCN(C(=O)c4ccccc4)CC3)c12` [Example 282, 1-benzoyl-4-[(4-methoxy-7-(3-(1-hydroxy-cyclopentyl)-pyrazol-1-yl)-6-azaindol-3-yl)-oxoacetyl]piperazine], the EC50 under setting [2] is below 1 µM.

Regarding `CNCc1ccn(-c2ncc(OC)c3c(C(=O)C(=O)N4CCN(C(=O)c5ccccc5)CC4)c[nH]c23)n1` [Example 283, 1-benzoyl-4-[(4-methoxy-7-(3-methylaminomethyl-pyrazol-1-yl)-6-azaindol-3-yl)-oxoacetyl]piperazine], the EC50 under setting [2] was below 1 µM.

With `COc1cnc(-n2ccc(C(O)C(C)C)n2)c2[nH]cc(C(=O)C(=O)N3CCN(C(=O)c4ccccc4)CC3)c12` (centres unmarked) [Example 284, 1-benzoyl-4-[(4-methoxy-7-(3-(1-hydroxy-2-methyl-propyl)-pyrazol-1-yl)-6-azaindol-3-yl)-oxoacetyl]piperazine], the EC50 under setting [2] is below 1 µM.

With `CCOC(=O)c1ccc(OCc2ccn(-c3ncc(OC)c4c(C(=O)C(=O)N5CCN(C(=O)c6ccccc6)CC5)c[nH]c34)n2)cc1` [Example 285, 1-benzoyl-4-[(4-methoxy-7-(3-(4-ethoxycarbonyl-phenyl)oxymethyl-pyrazol-1-yl)-6-azaindol-3-yl)-oxoacetyl]piperazine], the EC50 under setting [2] was below 1 µM.

As to `COc1cnc(-n2ccc(S(=O)(=O)c3ccc(C)cc3)n2)c2[nH]cc(C(=O)C(=O)N3CCN(C(=O)c4ccccc4)CC3)c12` [Example 286, 1-benzoyl-4-[(4-methoxy-7-(3-(toluene-4-sulfonyl)-pyrazol-1-yl)-6-azaindol-3-yl)-oxoacetyl]piperazine], under setting [2], the EC50 was below 1 µM.

Turning to `COc1cnc(-n2ccc(-c3cccc(C(F)(F)F)c3)n2)c2[nH]cc(C(=O)C(=O)N3CCN(C(=O)c4ccccc4)CC3)c12` [Example 287, 1-benzoyl-4-[(4-methoxy-7-(3-(3-trifluoromethyl-phenyl)-pyrazol-1-yl)-6-azaindol-3-yl)-oxoacetyl]piperazine], the EC50 under setting [2] is below 1 µM.
